The source of these data is publication PMC11233931, “Remodeling tumor‐associated macrophage for anti‐cancer effects by rational design of irreversible inhibition of mitogen‐activated protein kinase‐activated protein kinase 2” (MedComm, 2024).

Common to all, as to assay: Eurofins kinase selectivity profile against 380 other human recombinant kinases (Table S2)
Holding throughout (format): biochemical

In assay [1] the target is T1, 380 human recombinant protein kinases (Homo sapiens, UniProt P11362).
T1 construct: purchased Eurofins (Celle Lévescault)
T1 sequence (P11362 22-822): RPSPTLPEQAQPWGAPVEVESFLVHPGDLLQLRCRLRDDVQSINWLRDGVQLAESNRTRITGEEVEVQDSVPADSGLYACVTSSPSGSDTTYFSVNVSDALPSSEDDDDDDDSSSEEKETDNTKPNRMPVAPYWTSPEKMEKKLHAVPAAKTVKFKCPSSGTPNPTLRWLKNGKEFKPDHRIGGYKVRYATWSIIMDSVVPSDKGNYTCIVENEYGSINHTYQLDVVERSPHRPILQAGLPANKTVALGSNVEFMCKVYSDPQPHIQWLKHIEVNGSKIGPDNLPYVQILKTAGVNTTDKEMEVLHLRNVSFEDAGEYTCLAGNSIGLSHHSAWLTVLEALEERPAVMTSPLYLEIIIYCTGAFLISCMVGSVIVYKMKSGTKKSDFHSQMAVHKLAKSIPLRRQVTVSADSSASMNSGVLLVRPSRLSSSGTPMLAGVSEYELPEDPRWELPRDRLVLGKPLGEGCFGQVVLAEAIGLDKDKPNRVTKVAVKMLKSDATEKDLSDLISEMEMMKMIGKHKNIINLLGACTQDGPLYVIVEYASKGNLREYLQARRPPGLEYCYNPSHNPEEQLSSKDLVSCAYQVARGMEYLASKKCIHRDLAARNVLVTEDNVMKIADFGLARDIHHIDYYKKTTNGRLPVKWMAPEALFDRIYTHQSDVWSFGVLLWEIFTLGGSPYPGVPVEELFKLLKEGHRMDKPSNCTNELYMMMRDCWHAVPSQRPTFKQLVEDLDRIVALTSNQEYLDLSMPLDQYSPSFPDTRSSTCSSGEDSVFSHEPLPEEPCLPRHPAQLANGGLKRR
The following applies: FGFR1(h), read-out: Inhibition rate. In short, it runs like this: (§1)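 The inhibitor was sent to a contract lab and screened at various concentrations against 380 human recombinant protein kinases. This served as a counter-screen for MK2 specificity.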

Assay [2] deals with T2, 380 human recombinant protein kinases (Homo sapiens, UniProt Q9UPE1).
T2 construct: purchased Eurofins (Celle Lévescault)
T2 sequence (Q9UPE1 whole entry): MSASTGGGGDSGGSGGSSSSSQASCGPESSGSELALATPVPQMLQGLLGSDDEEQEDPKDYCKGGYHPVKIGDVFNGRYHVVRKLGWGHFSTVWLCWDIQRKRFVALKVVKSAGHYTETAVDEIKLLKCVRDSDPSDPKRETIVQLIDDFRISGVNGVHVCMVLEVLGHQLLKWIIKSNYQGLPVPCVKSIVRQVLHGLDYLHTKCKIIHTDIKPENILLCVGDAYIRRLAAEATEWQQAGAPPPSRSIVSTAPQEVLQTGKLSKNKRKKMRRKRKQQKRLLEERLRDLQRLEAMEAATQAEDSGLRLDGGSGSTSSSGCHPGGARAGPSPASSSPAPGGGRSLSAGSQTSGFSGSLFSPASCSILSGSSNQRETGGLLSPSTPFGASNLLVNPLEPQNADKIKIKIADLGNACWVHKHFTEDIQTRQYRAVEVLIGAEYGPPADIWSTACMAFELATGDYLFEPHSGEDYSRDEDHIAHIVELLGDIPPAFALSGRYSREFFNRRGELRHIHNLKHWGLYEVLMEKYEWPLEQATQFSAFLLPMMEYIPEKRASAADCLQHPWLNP
The following applies: MSSK1(h), read-out: Inhibition rate. The method, boiled down:
as §1

In assay [3] the target is T3, 380 human recombinant protein kinases (Homo sapiens, UniProt Q9H2K8).
T3 construct: purchased Eurofins (Celle Lévescault)
T3 sequence (Q9H2K8 1-898): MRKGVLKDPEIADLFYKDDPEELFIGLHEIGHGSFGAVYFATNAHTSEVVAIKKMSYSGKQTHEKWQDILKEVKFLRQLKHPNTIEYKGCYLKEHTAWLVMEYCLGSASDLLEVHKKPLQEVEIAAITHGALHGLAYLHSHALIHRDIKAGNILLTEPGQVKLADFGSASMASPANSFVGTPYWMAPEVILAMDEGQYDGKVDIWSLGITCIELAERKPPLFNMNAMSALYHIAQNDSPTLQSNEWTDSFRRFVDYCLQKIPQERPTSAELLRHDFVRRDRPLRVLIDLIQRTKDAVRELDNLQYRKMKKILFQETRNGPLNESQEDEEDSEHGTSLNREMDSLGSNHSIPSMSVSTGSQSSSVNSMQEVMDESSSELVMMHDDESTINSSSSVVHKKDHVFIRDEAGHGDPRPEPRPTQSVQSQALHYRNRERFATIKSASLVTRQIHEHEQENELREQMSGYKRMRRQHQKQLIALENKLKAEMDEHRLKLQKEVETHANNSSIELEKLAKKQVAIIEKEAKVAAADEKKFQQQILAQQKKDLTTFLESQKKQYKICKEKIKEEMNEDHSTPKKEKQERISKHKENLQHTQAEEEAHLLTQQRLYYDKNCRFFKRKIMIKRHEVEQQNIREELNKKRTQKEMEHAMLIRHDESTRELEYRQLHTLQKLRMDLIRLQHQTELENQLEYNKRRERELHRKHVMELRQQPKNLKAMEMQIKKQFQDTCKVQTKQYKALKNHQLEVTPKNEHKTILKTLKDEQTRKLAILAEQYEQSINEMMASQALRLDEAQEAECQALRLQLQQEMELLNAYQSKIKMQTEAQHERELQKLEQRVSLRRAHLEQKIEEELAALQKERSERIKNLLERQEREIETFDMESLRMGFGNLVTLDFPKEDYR
The following applies: TAO3(h), read-out: Inhibition rate (%). In short, it runs like this:
as §1

For assay [4], the target named is T4, 380 human recombinant protein kinases (Homo sapiens, UniProt O14920).
T4 construct: purchased Eurofins (Celle Lévescault)
T4 sequence (O14920 1-756): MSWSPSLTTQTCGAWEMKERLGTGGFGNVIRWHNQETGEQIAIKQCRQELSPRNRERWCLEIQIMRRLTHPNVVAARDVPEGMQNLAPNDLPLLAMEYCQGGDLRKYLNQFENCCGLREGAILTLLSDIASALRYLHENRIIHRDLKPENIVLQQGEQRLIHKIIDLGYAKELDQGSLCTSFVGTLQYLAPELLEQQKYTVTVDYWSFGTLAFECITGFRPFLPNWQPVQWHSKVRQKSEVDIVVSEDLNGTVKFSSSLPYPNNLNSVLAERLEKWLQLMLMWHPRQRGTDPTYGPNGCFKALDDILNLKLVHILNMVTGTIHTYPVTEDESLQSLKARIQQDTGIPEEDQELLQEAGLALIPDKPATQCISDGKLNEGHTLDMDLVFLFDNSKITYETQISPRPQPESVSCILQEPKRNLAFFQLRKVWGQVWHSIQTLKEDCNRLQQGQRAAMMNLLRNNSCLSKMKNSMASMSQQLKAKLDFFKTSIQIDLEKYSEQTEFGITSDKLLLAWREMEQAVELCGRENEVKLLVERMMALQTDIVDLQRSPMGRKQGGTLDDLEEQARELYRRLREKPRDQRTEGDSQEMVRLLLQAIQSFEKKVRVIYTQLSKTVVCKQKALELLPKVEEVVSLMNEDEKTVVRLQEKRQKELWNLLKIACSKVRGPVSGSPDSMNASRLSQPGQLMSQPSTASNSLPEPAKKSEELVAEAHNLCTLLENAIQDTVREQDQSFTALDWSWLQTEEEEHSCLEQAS
As to conditions: IKKβ(h), read-out: Inhibition rate. The method, boiled down: as §1

For assay [5], the target named is T5, 380 human recombinant protein kinases (Homo sapiens, UniProt Q15418).
T5 construct: purchased Eurofins (Celle Lévescault)
T5 sequence (Q15418 whole entry): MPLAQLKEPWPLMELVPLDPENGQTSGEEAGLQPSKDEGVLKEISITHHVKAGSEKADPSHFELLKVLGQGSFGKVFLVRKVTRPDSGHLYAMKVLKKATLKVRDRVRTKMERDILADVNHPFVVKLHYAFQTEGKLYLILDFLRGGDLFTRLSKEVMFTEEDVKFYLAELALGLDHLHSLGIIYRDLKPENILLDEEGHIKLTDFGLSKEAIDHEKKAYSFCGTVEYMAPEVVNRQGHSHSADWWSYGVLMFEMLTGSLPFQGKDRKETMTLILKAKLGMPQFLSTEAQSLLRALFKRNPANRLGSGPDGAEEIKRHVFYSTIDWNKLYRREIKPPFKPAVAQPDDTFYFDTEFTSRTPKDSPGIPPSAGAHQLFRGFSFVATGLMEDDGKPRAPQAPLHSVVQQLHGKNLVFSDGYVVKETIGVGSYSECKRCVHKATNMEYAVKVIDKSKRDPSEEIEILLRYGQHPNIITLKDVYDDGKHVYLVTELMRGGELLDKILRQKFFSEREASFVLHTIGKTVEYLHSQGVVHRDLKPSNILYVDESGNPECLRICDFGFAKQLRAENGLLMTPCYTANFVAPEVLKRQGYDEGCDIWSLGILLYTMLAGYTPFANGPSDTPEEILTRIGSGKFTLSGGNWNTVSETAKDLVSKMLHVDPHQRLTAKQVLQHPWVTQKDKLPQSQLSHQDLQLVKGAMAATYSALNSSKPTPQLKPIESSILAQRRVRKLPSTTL
As to conditions: Rsk1(h), read-out: Inhibition rate. The method, boiled down: as §1

On to `C=CC(=O)Nc1cc(-c2cc(-c3cc4c([nH]3)CCNC4=O)ccn2)ccc1OC(F)(F)F` [compound 11], for which the inhibition (usually the change of the read-out against control, counted positive when it falls) at 0.01 µM in assay [1] (10 nM) is -2%; in assay [2] (10 nM) it was -7%; in assay [3] (10 nM), -4%; in assay [4] (10 nM) it was -15%; in assay [5] (10 nM) it was -2%. Moreover, the inhibition at 0.1 µM was 6% in assay [1] (100 nM); -4% in assay [2] (100 nM); 0% in assay [3] (100 nM); -12% in assay [4] (100 nM); -3% in assay [5] (100 nM). Also, the inhibition at 1 µM is 7% in assay [1] (1000 nM); 0% in assay [2] (1000 nM); 7% in assay [3] (1000 nM); -12% in assay [4] (1000 nM); -7% in assay [5] (1000 nM).
